Read-outs that look alike come from different tables or passages of the source.
What was measured:
[1] = Metabolic stability in rat liver microsomes; type: in vitro ADME; conditions: 30 minutes incubation, remaining compound by HPLC
Description: In order to probe the metabolic stability of the compounds of the invention, a series of compounds were selected for stability testing in rat liver microsomes. A DMSO solution of each compound was incubated for 30 minutes in the presence of rat liver homogenate. The percentage of remaining compound was assessed by HPLC. An approximate half life was calculated from the percentage of remaining compound. Table II, below, illustrates a comparison of the in vitro microsomal half life of the selected compounds verses a series of related compounds lacking the C-6 alkyl group. […] It is generally accepted in the industry that improved in vitro metabolic stability frequently translates into improved in vivo metabolic stability. Improved metabolic stability may translate to increased in vivo exposure levels.

[2] = molecular target: T1, human PKCθ full length enzyme (Homo sapiens, UniProt Q04759); experiment: PKCθ IMAP Assay; type: biochemical; conditions: PKCθ 1 nM; ATP 6 μM; peptide 100 nM; DMSO 5%; 25 minutes at room temperature; FP readout; read-out: PKC-Theta Mean IC50
T1 construct: human PKCθ full length enzyme (Panvera Cat# P2996); purchased Panvera P2996
Description: The materials used include the following: human PKCθ full length enzyme (Panvera Cat# P2996); substrate peptide: 5FAM-RFARKGSLRQKNV-OH (Molecular Devices, RP7032); ATP (Sigma Cat # A2383); DTT (Pierce, 20291); 5× kinase reaction buffer (Molecular Devices, R7209); 5× binding buffer A (Molecular Devices, R7282), 5× binding buffer B (Molecular Devices, R7209); IMAP Beads (Molecular Devices, R7284); and 384-well plates (Corning Costar, 3710).
The reaction buffer was prepared by diluting the 5× stock reaction buffer and adding DTT to obtain a concentration of 3.0 mM. The binding buffer was prepared by diluting the 5× binding buffer A. A master mix solution was prepared using a 90% dilution of the reaction buffer containing 2×ATP (12 uM) and 2× peptide (200 nm). Compounds were diluted in DMSO to 20× of the maximum concentration for the IC50 measurement. 27 μl of the master mix solution for each IC50 curve was added to the first column in a 384-well plate and 3 μl of 20× compound in DMSO was added to each well.
The final concentration of compound was 2× and 10% DMSO. DMSO was added to the rest of the master mix to increase the concentration to 10%. 10 μl of the master mix containing 10% DMSO was added to the rest of the wells on the plate except the 2nd column. 20 μl was transferred from the first column to the 2nd column. The compounds were serially diluted in 2:1 ratio starting from the 2nd column. A 2×(2 nM) PKCθ solution was made in the reaction buffer. 10 μl of the PKCθ solution was added to every well to achieve these final concentrations: PKCθ-1 nM; ATP-6 μM; peptide-100 nM; DMSO-5%. Samples were incubated for 25 minutes at room temperature. The binding reagent was prepared by diluting the beads in 1× binding buffer to 800:1. 50 μl of the binding reagent was added to every well and incubated for 20 minutes. FP was measured using Envision2100 (PerkinElmer Life Sciences). Wells with no ATP and wells with no enzyme were used as controls.

[3] = related compounds lacking the C-6 alkyl group, read-out: Rat Microsome Stability of 6-H cyanopyridine Compounds (approximate half life)
[4] = 6-Me compounds of the invention, read-out: Rat Microsome Stability of 6-Me cyanopyridine Compounds (approximate half life)

T1 sequence (Q04759 whole entry): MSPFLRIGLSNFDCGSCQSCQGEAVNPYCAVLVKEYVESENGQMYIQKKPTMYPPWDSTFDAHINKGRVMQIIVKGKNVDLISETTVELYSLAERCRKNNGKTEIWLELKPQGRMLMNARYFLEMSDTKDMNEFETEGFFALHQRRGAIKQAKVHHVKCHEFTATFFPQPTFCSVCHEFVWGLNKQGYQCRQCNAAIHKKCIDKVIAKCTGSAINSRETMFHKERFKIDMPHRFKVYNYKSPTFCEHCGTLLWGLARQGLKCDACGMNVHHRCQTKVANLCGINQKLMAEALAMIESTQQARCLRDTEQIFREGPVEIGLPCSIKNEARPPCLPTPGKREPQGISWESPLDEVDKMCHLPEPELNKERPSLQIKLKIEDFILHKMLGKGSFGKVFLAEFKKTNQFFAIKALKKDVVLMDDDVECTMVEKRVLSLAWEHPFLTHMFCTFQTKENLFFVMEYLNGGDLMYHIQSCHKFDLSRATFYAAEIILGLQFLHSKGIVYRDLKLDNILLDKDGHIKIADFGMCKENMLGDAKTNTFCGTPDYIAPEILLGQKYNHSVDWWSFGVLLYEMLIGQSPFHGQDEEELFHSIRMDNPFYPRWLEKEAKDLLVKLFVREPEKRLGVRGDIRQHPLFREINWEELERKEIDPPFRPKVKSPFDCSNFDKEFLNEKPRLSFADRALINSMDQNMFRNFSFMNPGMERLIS

Compound	half-life [1, 3]	IC50 [2]	half-life [1, 4]	also measured
Cc1c(Nc2c(C#N)cncc2-c2ccc(OCCN3CCC(N4CCOCC4)CC3)cc2)ccc2[nH]ccc12	10 min	–	–	–
Cc1c(Nc2c(C#N)cncc2-c2ccc(OCCN3CCC(c4ccccc4)CC3)cc2)ccc2[nH]ccc12	5 min	–	–	–
Cc1c(Nc2c(C#N)cncc2-c2ccc(OCCNCc3ccccn3)cc2)ccc2[nH]ccc12	3 min	–	–	–
Cc1c(Nc2c(C#N)cncc2-c2ccc(OCCNCCCn3ccnc3)cc2)ccc2[nH]ccc12	22 min	–	–	–
Cc1c(Nc2c(C#N)cncc2-c2ccc(OCCNCc3ccccc3)cc2)ccc2[nH]ccc12	6 min	–	–	–
Cc1c(Nc2c(C#N)cncc2-c2ccc(OCCN3CCN(CCN(C)C)CC3)cc2)ccc2[nH]ccc12	> 30 min	–	–	–
Cc1c(Nc2c(C#N)cncc2-c2ccc(OCCN3CCN(CCO)CC3)cc2)ccc2[nH]ccc12	11 min	–	–	–
CCN1CCN(CCOc2ccc(-c3cncc(C#N)c3Nc3ccc4[nH]ccc4c3C)cc2)CC1	8 min	–	–	–
Cc1c(Nc2c(C#N)cncc2-c2ccc(OCCN3CCC(N4CCCC4)CC3)cc2)ccc2[nH]ccc12	> 30 min	–	–	–
Cc1c(Nc2c(C#N)cncc2-c2ccc(OCCN3CCOCC3)cc2)ccc2[nH]ccc12	8 min	–	–	–
Cc1c(Nc2c(C#N)cncc2-c2ccc(OCCNC3CCN(C)CC3)cc2)ccc2[nH]ccc12	> 30 min	–	–	–
Cc1c(Nc2c(C#N)cncc2-c2ccc(OCCNCC3CCN(C)CC3)cc2)ccc2[nH]ccc12	> 30 min	–	–	–
Cc1c(Nc2c(C#N)cncc2-c2ccc(OCCN3CCCC3)cc2)ccc2[nH]ccc12	21 min	–	–	–
Cc1c(Nc2c(C#N)cncc2-c2ccc(OCCN3CCN(C)CC3)cc2)ccc2[nH]ccc12	14 min	–	–	–
CCOCCNCCOc1ccc(-c2cncc(C#N)c2Nc2ccc3[nH]ccc3c2C)cc1	7 min	–	–	–
5-{4-[2-(4-cyclopentylpiperazin-1-yl)ethoxy]phenyl}-6-methyl-4-[(4-methyl-1H-indol-5-yl)amino]nicotinonitrile [Example 37]	–	0.03 µM	–	Rat Microsome Stability of 6-Me cyanopyridine Compounds (approximate half life) ([1]; 6-Me compounds of the invention): >30 min
COc1ccc(-c2c(C)ncc(C#N)c2Nc2cccc3[nH]ccc23)cc1OC [Example 8, 5-(3,4-dimethoxyphenyl)-4-(1H-indol-4-ylamino)-6-methylnicotinonitrile]	–	0.151 µM	–	melting point: 182 to 183 °C
COc1ccc(-c2c(C)ncc(C#N)c2Nc2ccc3[nH]ccc3c2C)cc1OC [Example 9, 5-(3,4-dimethoxyphenyl)-6-methyl-4-[(4-methyl-1H-indol-5-yl)amino]nicotinonitrile]	–	0.067 µM	–	melting point: 202 to 203 °C

Second part, led by results:

half-life [1, 3]	IC50 [2]	half-life [1, 4]	Compound	also measured
–	0.113 µM	–	Cc1ncc(C#N)c(Nc2cccc3[nH]ccc23)c1-c1cc2ccccc2o1 [Example 10, 5-(1-benzofuran-2-yl)-4-(1H-indol-4-ylamino)-6-methylnicotinonitrile]	melting point: 192 to 193 °C
–	0.013 µM	–	Cc1ncc(C#N)c(Nc2ccc3[nH]ccc3c2C)c1-c1cc2ccccc2o1 [Example 11, 5-(1-benzofuran-2-yl)-6-methyl-4-[(4-methyl-1H-indol-5-yl)amino]nicotinonitrile]	melting point: 154 to 155 °C
–	0.046 µM	> 30 min	CCOCCNCCOc1ccc(-c2c(C)ncc(C#N)c2Nc2ccc3[nH]ccc3c2C)cc1 [Example 19, 5-(4-{2-[(2-ethoxyethyl)amino]ethoxy}phenyl)-6-methyl-4-[(4-methyl-1H-indol-5-yl)amino]nicotinonitrile]	–
–	0.025 µM	> 30 min	Cc1ncc(C#N)c(Nc2ccc3[nH]ccc3c2C)c1-c1ccc(OCCN2CCCC2)cc1 [Example 20, 6-methyl-4-[(4-methyl-1H-indol-5-yl)amino]-5-[4-(2-pyrrolidin-1-ylethoxy)phenyl]nicotinonitrile]	–
–	0.009 µM	> 30 min	Cc1ncc(C#N)c(Nc2ccc3[nH]ccc3c2C)c1-c1ccc(OCCNC2CCN(C)CC2)cc1 [Example 22, 6-methyl-4-[(4-methyl-1H-indol-5-yl)amino]-5-(4-{2-[(1-methylpiperidin-4-yl)amino]ethoxy}phenyl)nicotinonitrile]	–
–	0.008 µM	> 30 min	Cc1ncc(C#N)c(Nc2ccc3[nH]ccc3c2C)c1-c1ccc(OCCNCC2CCN(C)CC2)cc1 [Example 23, 6-methyl-4-[(4-methyl-1H-indol-5-yl)amino]-5-[4-(2-{[(1-methylpiperidin-4-yl)methyl]amino}ethoxy)phenyl]nicotinonitrile]	–
–	0.272 µM	20 min	Cc1ncc(C#N)c(Nc2ccc3[nH]ccc3c2C)c1-c1ccc(OCCN2CCC(c3ccccc3)CC2)cc1 [Example 29, 6-methyl-4-[(4-methyl-1H-indol-5-yl)amino]-5-{4-[2-(4-phenylpiperidin-1-yl)ethoxy]phenyl}nicotinonitrile]	–
–	0.124 µM	17 min	Cc1ncc(C#N)c(Nc2ccc3[nH]ccc3c2C)c1-c1ccc(OCCN2CCOCC2)cc1 [Example 30, 6-methyl-4-[(4-methyl-1H-indol-5-yl)amino]-5-[4-(2-morpholin-4-ylethoxy)phenyl]nicotinonitrile]	–
–	0.044 µM	> 30 min	CCN1CCN(CCOc2ccc(-c3c(C)ncc(C#N)c3Nc3ccc4[nH]ccc4c3C)cc2)CC1 [Example 33, 5-{4-[2-(4-ethylpiperazin-1-yl)ethoxy]phenyl}-6-methyl-4-[(4-methyl-1H-indol-5-yl)amino]nicotinonitrile]	–
–	0.044 µM	> 30 min	Cc1ncc(C#N)c(Nc2ccc3[nH]ccc3c2C)c1-c1ccc(OCCN2CCN(CCO)CC2)cc1 [Example 35, 5-(4-{2-[4-(2-hydroxyethyl)piperazin-1-yl]ethoxy}phenyl)-6-methyl-4-[(4-methyl-1H-indol-5-yl)amino]nicotinonitrile]	–
–	0.033 µM	> 30 min	Cc1ncc(C#N)c(Nc2ccc3[nH]ccc3c2C)c1-c1ccc(OCCN2CCN(CCN(C)C)CC2)cc1 [Example 36, 5-[4-(2-{4-[2-(dimethylamino)ethyl]piperazin-1-yl}ethoxy)phenyl]-6-methyl-4-[(4-methyl-1H-indol-5-yl)amino]nicotinonitrile]	–
–	0.014 µM	> 30 min	Cc1ncc(C#N)c(Nc2ccc3[nH]ccc3c2C)c1-c1ccc(OCCNCCCn2ccnc2)cc1 [Example 38, 5-[4-(2-{[3-(1H-imidazol-1-yl)propyl]amino}ethoxy)phenyl]-6-methyl-4-[(4-methyl-1H-indol-5-yl)amino]nicotinonitrile]	–
–	0.073 µM	14 min	Cc1ncc(C#N)c(Nc2ccc3[nH]ccc3c2C)c1-c1ccc(OCCNCc2ccccc2)cc1 [Example 39, 5-{4-[2-(benzylamino)ethoxy]phenyl}-6-methyl-4-[(4-methyl-1H-indol-5-yl)amino]nicotinonitrile]	–
–	0.029 µM	13 min	Cc1ncc(C#N)c(Nc2ccc3[nH]ccc3c2C)c1-c1ccc(OCCNCc2ccccn2)cc1 [Example 40, 6-methyl-4-[(4-methyl-1H-indol-5-yl)amino]-5-(4-{2-[(pyridin-2-ylmethyl)amino]ethoxy}phenyl)nicotinonitrile]	–
–	0.02 µM	–	Cc1ncc(C#N)c(Nc2ccc3[nH]ccc3c2C)c1-c1ccc(CN2CCN(C)CC2)o1 [Example 68, 6-methyl-4-[(4-methyl-1H-indol-5-yl)amino]-5-{5-[(4-methylpiperazin-1-yl)methyl]furan-2-yl}pyridine-3-carbonitrile]	–
–	0.0048 µM	–	Cc1ncc(C#N)c(Nc2ccc3[nH]ccc3c2C)c1-c1ccc(C=O)s1 [Example 69, 5-(5-formylthiophen-2-yl)-6-methyl-4-[(4-methyl-1H-indol-5-yl)amino]pyridine-3-carbonitrile]	–
–	0.014 µM	–	Cc1ncc(C#N)c(Nc2ccc3[nH]ccc3c2C)c1-c1ccc(CN2CCN(C)CC2)s1 [Example 70, 6-methyl-4-[(4-methyl-1H-indol-5-yl)amino]-5-{5-[(4-methylpiperazin-1-yl)methyl]thiophen-2-yl}pyridine-3-carbonitrile]	–
